Reference: ChEMBL document CHEMBL2413064, “Synthesis and α-glucosidase inhibitory activity evaluation of N-substituted aminomethyl-β-d-glucopyranosides” (Bioorg Med Chem, 2013)

Key:
[1] = molecular target: Maltase-glucoamylase, intestinal (Rattus norvegicus)
[2] = molecular target: Alpha-glucosidase MAL12 (Saccharomyces cerevisiae S288c, UniProt P53341); assay: Inhibition of Saccharomyces cerevisiae alpha-glucosidase assessed as 4-nitrophenol release from 4-nitrophenyl alpha-D-glucopyranoside preincubated for 15 mins measured after 15 mins
Chain of Alpha-glucosidase MAL12 (P53341 whole entry): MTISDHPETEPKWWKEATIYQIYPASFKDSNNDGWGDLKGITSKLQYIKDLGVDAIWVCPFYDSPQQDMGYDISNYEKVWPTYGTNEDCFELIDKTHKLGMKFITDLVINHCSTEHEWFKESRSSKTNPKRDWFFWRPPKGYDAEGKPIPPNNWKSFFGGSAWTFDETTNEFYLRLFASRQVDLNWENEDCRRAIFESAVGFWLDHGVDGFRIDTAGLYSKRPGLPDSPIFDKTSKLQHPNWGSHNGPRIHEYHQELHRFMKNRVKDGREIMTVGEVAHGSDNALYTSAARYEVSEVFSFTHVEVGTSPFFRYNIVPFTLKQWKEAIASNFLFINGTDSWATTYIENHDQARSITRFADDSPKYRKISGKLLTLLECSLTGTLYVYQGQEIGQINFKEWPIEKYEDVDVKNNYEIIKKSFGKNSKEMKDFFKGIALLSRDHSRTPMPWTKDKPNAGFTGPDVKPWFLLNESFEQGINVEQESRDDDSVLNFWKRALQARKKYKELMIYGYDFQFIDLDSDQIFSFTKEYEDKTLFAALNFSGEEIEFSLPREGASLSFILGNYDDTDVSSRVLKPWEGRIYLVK

[3] = molecular target: T1, Sucrase-isomaltase, intestinal (Rattus norvegicus, UniProt P23739); assay: Inhibition of rat intestinal sucrase using sucrose as substrate assessed as D-glucose release from substrate preincubated for 15 mins measured after 60 mins
T1 sequence (P23739 1-1013 limits assumed): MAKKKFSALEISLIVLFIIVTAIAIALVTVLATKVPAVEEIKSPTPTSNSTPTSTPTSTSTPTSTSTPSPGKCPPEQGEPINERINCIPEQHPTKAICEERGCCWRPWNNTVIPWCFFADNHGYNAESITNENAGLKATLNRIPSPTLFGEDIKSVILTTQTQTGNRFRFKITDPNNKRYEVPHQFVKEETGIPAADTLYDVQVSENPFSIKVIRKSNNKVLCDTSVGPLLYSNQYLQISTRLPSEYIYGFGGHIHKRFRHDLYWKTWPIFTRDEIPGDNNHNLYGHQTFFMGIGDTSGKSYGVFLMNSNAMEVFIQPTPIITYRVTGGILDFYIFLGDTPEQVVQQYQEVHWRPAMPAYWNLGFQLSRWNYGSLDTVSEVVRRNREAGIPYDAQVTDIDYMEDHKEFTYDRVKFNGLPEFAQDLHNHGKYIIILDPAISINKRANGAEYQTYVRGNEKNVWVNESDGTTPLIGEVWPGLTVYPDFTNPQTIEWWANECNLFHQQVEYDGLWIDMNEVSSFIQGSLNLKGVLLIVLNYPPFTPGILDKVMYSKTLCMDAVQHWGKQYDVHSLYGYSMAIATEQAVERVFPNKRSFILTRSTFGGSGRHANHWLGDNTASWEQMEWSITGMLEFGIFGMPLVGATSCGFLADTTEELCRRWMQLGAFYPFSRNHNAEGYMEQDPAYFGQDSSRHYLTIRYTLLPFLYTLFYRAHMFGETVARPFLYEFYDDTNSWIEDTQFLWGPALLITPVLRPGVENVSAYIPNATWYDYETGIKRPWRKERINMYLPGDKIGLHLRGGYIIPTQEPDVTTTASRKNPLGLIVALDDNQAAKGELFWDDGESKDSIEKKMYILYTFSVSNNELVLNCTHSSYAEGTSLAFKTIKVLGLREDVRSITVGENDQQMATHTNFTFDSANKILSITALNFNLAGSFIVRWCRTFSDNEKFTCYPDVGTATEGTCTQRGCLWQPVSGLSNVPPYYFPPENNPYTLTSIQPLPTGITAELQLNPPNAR
T1 sequence (P23739 1014-1841 limits assumed): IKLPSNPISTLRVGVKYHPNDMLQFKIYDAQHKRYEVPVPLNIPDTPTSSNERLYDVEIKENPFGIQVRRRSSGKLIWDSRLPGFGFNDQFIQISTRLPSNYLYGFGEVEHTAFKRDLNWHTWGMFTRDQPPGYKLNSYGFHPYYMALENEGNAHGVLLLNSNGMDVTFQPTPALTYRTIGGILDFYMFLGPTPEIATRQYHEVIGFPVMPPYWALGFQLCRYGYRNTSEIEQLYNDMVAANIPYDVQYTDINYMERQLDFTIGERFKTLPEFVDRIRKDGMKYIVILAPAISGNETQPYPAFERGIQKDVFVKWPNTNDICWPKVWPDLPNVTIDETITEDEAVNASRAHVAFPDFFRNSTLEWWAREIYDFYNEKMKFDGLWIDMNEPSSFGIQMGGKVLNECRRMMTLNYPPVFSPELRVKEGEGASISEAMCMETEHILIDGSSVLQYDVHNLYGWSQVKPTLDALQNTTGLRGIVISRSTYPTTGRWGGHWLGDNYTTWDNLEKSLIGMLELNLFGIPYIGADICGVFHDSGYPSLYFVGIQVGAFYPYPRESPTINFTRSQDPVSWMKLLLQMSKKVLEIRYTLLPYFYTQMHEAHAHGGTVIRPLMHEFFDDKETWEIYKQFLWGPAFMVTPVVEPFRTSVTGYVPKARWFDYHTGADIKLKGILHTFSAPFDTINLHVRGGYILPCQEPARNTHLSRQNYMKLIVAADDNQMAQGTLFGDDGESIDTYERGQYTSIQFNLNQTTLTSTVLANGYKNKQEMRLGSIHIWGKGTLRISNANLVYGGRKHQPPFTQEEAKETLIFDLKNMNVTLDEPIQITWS

[4] = molecular target: T1, Sucrase-isomaltase, intestinal; assay: Competitive inhibition of rat intestinal sucrase using sucrose as substrate by Lineweaver-Burk plot analysis

| Structure (SMILES) | IC50 [1] [µM] | IC50 [2] [µM] | IC50 [3] [µM] | Ki [4] [µM] |
| --- | --- | --- | --- | --- |
| O=C(NC[C@@H]1O[C@H](CO)[C@@H](O)[C@H](O)[C@H]1O)c1ccccc1 | 842 | 499 | > 2000 | – |
| O=C(NC[C@@H]1O[C@H](CO)[C@@H](O)[C@H](O)[C@H]1O)c1ccc(Cl)cc1Cl | 585 | 466 | 991 | – |
| O=C(NC[C@@H]1O[C@H](CO)[C@@H](O)[C@H](O)[C@H]1O)c1ccc(F)cc1 | 464 | 1520 | 403 | – |
| O=C(NC[C@@H]1O[C@H](CO)[C@@H](O)[C@H](O)[C@H]1O)c1cccc([N+](=O)[O-])c1 | – | 283 | 381 | – |
| O=C(NC[C@@H]1O[C@H](CO)[C@@H](O)[C@H](O)[C@H]1O)c1ccccc1O | 1010 | 470 | > 2000 | – |
| COc1ccccc1C(=O)NC[C@@H]1O[C@H](CO)[C@@H](O)[C@H](O)[C@H]1O | 719 | 471 | 1090 | – |
| O=C(NC[C@@H]1O[C@H](CO)[C@@H](O)[C@H](O)[C@H]1O)c1ccc(O)cc1 | 758 | 1910 | 1640 | – |
| COc1ccc(C(=O)NC[C@@H]2O[C@H](CO)[C@@H](O)[C@H](O)[C@H]2O)c(OC)c1 | – | 1860 | > 2000 | – |
| O=C(NC[C@@H]1O[C@H](CO)[C@@H](O)[C@H](O)[C@H]1O)c1ccco1 | – | 534 | 770 | – |
| O=C(NC[C@@H]1O[C@H](CO)[C@@H](O)[C@H](O)[C@H]1O)c1cccs1 | 445 | 325 | > 2000 | – |
| CC(=O)Oc1ccc(/C=C/C(=O)NC[C@@H]2O[C@H](CO)[C@@H](O)[C@H](O)[C@H]2O)cc1OC(C)=O | – | 355 | 10.4 | 17.1 |
| OC[C@H]1O[C@@H](CNCc2ccc(Cl)cc2Cl)[C@H](O)[C@@H](O)[C@@H]1O | – | 318 | 154 | – |
| OC[C@H]1O[C@@H](CNCc2ccc(Cl)c(Cl)c2)[C@H](O)[C@@H](O)[C@@H]1O | 221 | 613 | 144 | – |
| COc1ccc(CNC[C@@H]2O[C@H](CO)[C@@H](O)[C@H](O)[C@H]2O)cc1 | 306 | 457 | 179 | – |
| COc1ccc(CNC[C@@H]2O[C@H](CO)[C@@H](O)[C@H](O)[C@H]2O)cc1O | 407 | 465 | 186 | – |
| COc1cc(CNC[C@@H]2O[C@H](CO)[C@@H](O)[C@H](O)[C@H]2O)ccc1O | 223 | 377 | 186 | – |
| COc1ccc(CNC[C@@H]2O[C@H](CO)[C@@H](O)[C@H](O)[C@H]2O)c(OC)c1 | 160 | 622 | 105 | – |
| OC[C@H]1O[C@@H](CNCc2cccs2)[C@H](O)[C@@H](O)[C@@H]1O | 324 | 374 | 173 | – |

Compounds with a lower IC50 [2], results first:

| IC50 [1] [µM] | IC50 [2] [µM] | IC50 [3] [µM] | Ki [4] [µM] | Structure (SMILES) |
| --- | --- | --- | --- | --- |
| 476 | 101 | 1420 | – | Cc1ccc(S(=O)(=O)NC[C@@H]2O[C@H](CO)[C@@H](O)[C@H](O)[C@H]2O)cc1 |
| – | 116 | 97.4 | – | OC[C@H]1O[C@@H](CNC/C=C/c2ccccc2)[C@H](O)[C@@H](O)[C@@H]1O |
| 846 | 36.2 | 1000 | – | O=C(NC[C@@H]1O[C@H](CO)[C@@H](O)[C@H](O)[C@H]1O)c1ccc([N+](=O)[O-])cc1 |
| 831 | 231 | 795 | – | COc1ccc(C(=O)NC[C@@H]2O[C@H](CO)[C@@H](O)[C@H](O)[C@H]2O)cc1 |
| 165 | 96.5 | 160 | – | CC(=O)Oc1ccc(C(=O)NC[C@@H]2O[C@H](CO)[C@@H](O)[C@H](O)[C@H]2O)cc1 |
| 7.7 | 225 | 15.6 | – | CC(=O)Oc1cc(C(=O)NC[C@@H]2O[C@H](CO)[C@@H](O)[C@H](O)[C@H]2O)cc(OC(C)=O)c1OC(C)=O |
| – | 2.3 | 314 | – | O=C(/C=C/c1ccccc1)NC[C@@H]1O[C@H](CO)[C@@H](O)[C@H](O)[C@H]1O |
| – | 5.6 | 405 | – | O=C(/C=C/c1ccc(O)cc1)NC[C@@H]1O[C@H](CO)[C@@H](O)[C@H](O)[C@H]1O |
| – | 142 | 155 | – | CC(=O)Oc1ccc(/C=C/C(=O)NC[C@@H]2O[C@H](CO)[C@@H](O)[C@H](O)[C@H]2O)cc1 |
| 382 | 102 | 253 | – | COc1cc(/C=C/C(=O)NC[C@@H]2O[C@H](CO)[C@@H](O)[C@H](O)[C@H]2O)ccc1O |
| 1330 | 39.2 | 270 | – | OC[C@H]1O[C@@H](CNCc2ccccc2)[C@H](O)[C@@H](O)[C@@H]1O |
| 202 | 115 | 301 | – | OC[C@H]1O[C@@H](CNCc2ccc(F)cc2)[C@H](O)[C@@H](O)[C@@H]1O |
| 714 | 44.3 | 627 | – | O=[N+]([O-])c1cccc(CNC[C@@H]2O[C@H](CO)[C@@H](O)[C@H](O)[C@H]2O)c1 |
| – | 156 | 181 | – | OC[C@H]1O[C@@H](CNCc2ccccc2O)[C@H](O)[C@@H](O)[C@@H]1O |
| – | 149 | 124 | – | OC[C@H]1O[C@@H](CNCc2ccc(O)cc2)[C@H](O)[C@@H](O)[C@@H]1O |
| – | 184 | 107 | – | COc1ccc(C(C)NC[C@@H]2O[C@H](CO)[C@@H](O)[C@H](O)[C@H]2O)cc1O (stereo partly specified) |
